Experimental data published in article PMC8268238, “Seleno-Functionalization of Quercetin Improves the Non-Covalent Inhibition of M^pro and Its Antiviral Activity in Cells against SARS-CoV-2” (International Journal of Molecular Sciences, 2021).
Like-named read-outs stand apart in the source and are kept apart here.

Tests used:
SARS-CoV-2 [1] = conditions: for Inhibition of the virus-caused cytopathic effect (CPE) / toxicity in the cellular infection model (in words): Vero cells; for Inhibition of the virus-caused cytopathic effect (CPE): 2 days; for SARS-CoV-2-related CPE reduction (in words): tested at 100, 75, 50, 25 and 10 µM, judged at non-toxic concentrations; for toxicity in the cellular infection model (in words) / precipitation in the medium (in words): 100-10 µM; for precipitation in the medium (in words): culture medium
SARS-CoV-2 M^pro [2] = target: T1, SARS-CoV-2 M^pro (Severe acute respiratory syndrome coronavirus 2, UniProt P0DTD1); experiment: SARS-CoV-2 M^pro inhibition assay (FRET substrate); assay type: biochemical; conditions: for IC50 / Ki: 0.2 μM enzyme, 20 μM substrate, pH 7, DMSO 2.5%; for IC50: equivalent to Ki^app; for Ki: intrinsic inhibition constant; for anti-M^pro inhibitory activity (in words): first-line screening at 100 μM
Procedure: A continuous assay based on Förster resonance energy transfer (FRET) to measure in vitro the catalytic activity of M^pro was implemented by using the substrate (Dabcyl)KTSAVLQSGFRKME(Edans)-NH2 (Biosyntan GmbH, Berlin, Germany) The enzymatic reaction was initiated by adding substrate at 20 μM (final concentration) to the enzyme at 0.2 μM (final concentration) in a final volume of 100 μL. The reaction buffer was sodium phosphate 50 mM, pH 7, NaCl 150 mM, and DMSO 2.5%. Fluorescence emission was measured in a FluoDia T70 microplate reader (Photon Technology International, Birmingham, NJ, USA) for 20 min (excitation wavelength, 380 nm; emission wavelength, 500 nm). The initial slope of the time evolution curve of the fluorescence emission signal provided a direct quantification of the enzymatic activity.
The in vitro inhibition potency of the compounds against M^pro was assessed through the estimation of the inhibition constant, Ki, and the half-maximal inhibitory concentration, IC50, from experimental inhibition curves. Inhibition curves were obtained by measuring the enzyme activity (at fixed 0.2 μM enzyme concentration and fixed 20 μM substrate concentration) as a function of compound concentration (serial 2-fold dilution from 125 µM to 0 μM), maintaining the percentage of DMSO (2.5%) constant. The enzymatic activity was quantitated as the initial slope of the substrate fluorescence emission time evolution curve, and was plotted as a function of compound concentration. The ratio between the activity (slope) in the presence and absence of the compound provides the residual percentage of activity at a given compound concentration. Nonlinear regression analysis employing a simple inhibition model (considering inhibitor depletion due to enzyme binding) allowed us to estimate the apparent inhibition constant, Ki^app, for each compound according to Equation (1):(1) [EI]=1/2([I]T+[E]T+Kiapp−([I]T+[E]T+Kiapp)^2−4[E]T[I]T)[I]=[I]T−[EI]=1/2([I]T−[E]T−Kiapp+([I]T+[E]T+Kiapp)^2−4[E]T[I]T)v([I])/v([I]=0)=1−[EI]/[E]T=1/1+[I]/Kiapp, where [EI] is the concentration of the enzyme–inhibitor complex, [E]T and [I]T are the total concentrations of the enzyme and the inhibitor, Ki^app is the apparent inhibition constant for the inhibitors (quercetin and derivatives), [I] is the concentration of the free inhibitor, and v is the initial slope of the enzymatic activity trace at a given (free) inhibitor concentration [I] (or total inhibitor concentration [I]T). No approximation for the free inhibitor concentration (e.g., assuming to be equal to the total inhibitor concentration) was made, thus having general validity for any total enzyme and inhibitor concentration and any value of the inhibition constant (even for tight-binding inhibitors). In addition, if the inhibitor acts through a purely competitive mechanism, the previous equation can be substituted by Equation (2):(2) v([I])/v([I]=0)=1/1+[I]/Kiapp=1/1+[I]/Ki(1+[S]/Km), where Ki is the intrinsic (i.e., substrate concentration-independent) inhibition constant, Km is the Michaelis–Menten constant for the enzyme–substrate interaction, and [S] is the substrate concentration. Because Km and [S] are known, the intrinsic inhibition constant can be determined. Furthermore, approximating the free compound concentration by the total compound concentration and neglecting ligand depletion, the Ki^app in Equation (2) is equivalent to the IC50, as reported in Table 3. However, it should be emphasized that the IC50 is an assay-dependent inhibition potency index (among other parameters, it depends on the enzyme and substrate concentrations, as well as on the Km); thus, the intrinsic inhibition constant is a better inhibition potency index. Uncertainties have been reported as 95% profile likelihood asymmetric confidence intervals, as especially recommended for equilibrium constants (i.e., binding association/dissociation constants and inhibition constants).

SARS-CoV-2 [3] = experiment: Inhibition of SARS-CoV-2 replication in Vero cells by RT-qPCR; assay type: cell-based
SARS-CoV-2 M^pro [4] = target: T1, SARS-CoV-2 M^pro; experiment: Reversibility test of M^pro interaction (SEC/dialysis, then activity and near-UV CD); assay type: biochemical; conditions: M^pro 24 μM incubated with compound 200 μM, 30 min, 25 °C, then SEC or dialysis
Vero cells = experiment: XTT cell viability assay; assay type: cell-based, Cercopithecus aethiops; conditions: quercetin 500–100 µM; 2d 100–10 µM; Figure S2
Procedure: Cell viability was evaluated using the XTT Cell Viability Assay kit (Biological Industries, Cromwell, CT, USA) according to the manufacturer’s protocol. Vero, A549ACE2+, CRFK, HRT-18, LLC-MK2, and HSF cells were cultured on 96-well plates. Cells were incubated with ACF for 24 h at 37 °C in an atmosphere containing 5% CO2. After incubation, the medium was discarded and 100 µL of fresh medium was added to each well. Then, 25 µL of the activated 2,3-bis-(2-methoxy-4-nitro-5-sulphenyl)-(2H)-tetrazolium-5-carboxanilide (XTT) solution was added and samples were incubated for 2 h at 37 °C. The absorbance (λ = 450 nm) was measured using a Spectra MAX 250 spectrophotometer (Molecular Devices, San Jose, CA, USA). The obtained results were normalized to the control samples, where cell viability was set to 100%.

Structure (SMILES) | melting point [°C] | Inhibition of the virus-caused cytopathic effect (CPE) (SARS-CoV-2 [1]; 10 µM) | Inhibition of the virus-caused cytopathic effect (CPE) (SARS-CoV-2 [1]; 25 µM) | Inhibition of the virus-caused cytopathic effect (CPE) (SARS-CoV-2 [1]; 75 µM) | Inhibition of the virus-caused cytopathic effect (CPE) (SARS-CoV-2 [1]; 100 µM) | IC50 (SARS-CoV-2 M^pro [2]) [µM] | Ki (SARS-CoV-2 M^pro [2]) [µM] | further results
Cc1cc(C)c([Se]CCOc2cc(O)c3c(=O)cc(-c4ccccc4)oc3c2)c(C)c1 | 135.7 to 138.4 |  |  |  |  |  |  | 
Cc1ccccc1[Se]CCOc1cc(O)c2c(=O)cc(-c3ccccc3)oc2c1 | 123.9 to 127.4 |  |  |  |  |  |  | 
O=c1cc(-c2ccccc2)oc2cc(OCC[Se]c3ccc(F)cc3)cc(O)c12 | 171.1 to 173.7 |  |  |  |  |  |  | 
O=c1cc(-c2ccccc2)oc2cc(OCC[Se]c3cccc(C(F)(F)F)c3)cc(O)c12 | 154.1 to 157.7 |  |  |  |  |  |  | 
COc1ccccc1[Se]CCOc1cc(O)c2c(=O)cc(-c3ccccc3)oc2c1 | 132.9 to 135.6 |  |  |  |  |  |  | 
O=c1cc(-c2ccccc2)oc2cc(OCC[Se]Cc3ccccc3)cc(O)c12 | 115.4 to 118.2 |  |  |  |  |  |  | 
O=c1c(O)c(-c2ccc(O)c(O)c2)oc2c([Se]c3ccccc3)c(O)cc(O)c12 [2a, 2-(3,4-Dihydroxyphenyl)-3,5,7-trihydroxy-8-(phenylselanyl)-4H-chromen-4-one] | 211 to 213 | - | - | tox | tox | 5.1 | 1.8 | Inhibition of the virus-caused cytopathic effect (CPE) (SARS-CoV-2 [1]; 50 µM): +; SARS-CoV-2-related CPE reduction (in words) (SARS-CoV-2 [1]): inhibited the development of the CPE; inhibition of SARS-CoV-2 replication by RT-qPCR (in words) (SARS-CoV-2 [3]; Vero cells, Figure S1): did not indicate any inhibition
CCCCCCCCCC[Se]c1c(O)cc(O)c2c(=O)c(O)c(-c3ccc(O)c(O)c3)oc12 [2b, 2-(3,4-Dihydroxyphenyl)-3,5,7-trihydroxy-8-(decylselenyl)-4H-chromen-4-one] | 155 to 159 |  |  |  |  | > 100 | > 100 | anti-M^pro inhibitory activity (in words) (SARS-CoV-2 M^pro [2]): devoid of any noticeable anti-M^pro inhibitory activity
CCCC[Se]c1c(O)cc(O)c2c(=O)c(O)c(-c3ccc(O)c(O)c3)oc12 [2c, 2-(3,4-Dihydroxyphenyl)-3,5,7-trihydroxy-8-(butylselenyl)-4H-chromen-4-one] | 159 to 163 |  |  |  |  | 24 | 8.6 | 
COc1ccc([Se]c2c(O)cc(O)c3c(=O)c(O)c(-c4ccc(O)c(O)c4)oc23)cc1 [2e, 2-(3,4-Dihydroxyphenyl)-3,5,7-trihydroxy-8-((4-methoxyphenyl)selanyl)-4H-chromen-4-one] | 194 to 197 | - | - | tox | tox | 3 | 1.1 | Inhibition of the virus-caused cytopathic effect (CPE) (SARS-CoV-2 [1]; 50 µM): tox/-
O=c1cc(-c2ccccc2)oc2cc(OCC[Se]c3ccccc3)cc(O)c12 [7a, 5-Hydroxy-2-phenyl-7-(2-(phenylselanyl)ethoxy)-4H-chromen-4-one] | 155 to 156 |  |  |  |  | > 100 | > 100 | 
O=c1c(O)c(-c2ccc(O)c(O)c2)oc2cc(O)cc(O)c12 [Quercetin 1, quercetin] |  | - | - | - | - |  |  | Inhibition of the virus-caused cytopathic effect (CPE) (SARS-CoV-2 [1]; 50 µM): -; Inhibition of the virus-caused cytopathic effect (CPE) (SARS-CoV-2 [1]; 200 µM): +; Inhibition of the virus-caused cytopathic effect (CPE) (SARS-CoV-2 [1]; 250 µM): +; Inhibition of the virus-caused cytopathic effect (CPE) (SARS-CoV-2 [1]; 300 µM): +; Inhibition of the virus-caused cytopathic effect (CPE) (SARS-CoV-2 [1]; 400 µM): +; Inhibition of the virus-caused cytopathic effect (CPE) (SARS-CoV-2 [1]; 500 µM): +; IC50 (SARS-CoV-2 [3]; Severe acute respiratory syndrome coronavirus 2, Vero, 48 h, infected Vero cells, 2 days, nonlinear regression, read-out: IC50 of SARS-CoV-2 replication (RT-qPCR)): 192 µM; logIC50 of SARS-CoV-2 replication (RT-qPCR) (SARS-CoV-2 [3]; log of concentration in µM, Figure S4): 2,284; reversibility of the interaction with M^pro (SARS-CoV-2 M^pro [4]; listed as 1): reversible interaction; reversibility of the interaction with M^pro (SARS-CoV-2 M^pro [4]; listed as quercetin): reversible; cytotoxicity on Vero cells (in words) (Vero cells): none of the tested concentrations exhibited cytotoxicity
O=c1c(O)c(-c2ccc(O)c(O)c2)oc2c([Se]c3ccccc3)c(O)c([Se]c3ccccc3)c(O)c12 [compound 3, 2-(3,4-Dihydroxyphenyl)-3,5,7-trihydroxy-6,8-bis(phenylselanyl)-4H-chromen-4-one] | 206 to 210 | - | - | tox | tox | 13 | 4.6 | Inhibition of the virus-caused cytopathic effect (CPE) (SARS-CoV-2 [1]; 50 µM): tox/-
O=c1cc(-c2ccccc2)oc2c([Se]c3ccccc3)c(O)c([Se]c3ccccc3)c(O)c12 [compound 6, 5,7-Dihydroxy-2-phenyl-6,8-bis(phenylselanyl)-4H-chromen-4-one] | 188.7 to 190.6 |  |  |  |  | > 100 | > 100 | anti-M^pro inhibitory activity (in words) (SARS-CoV-2 M^pro [2]): devoid of any noticeable anti-M^pro inhibitory activity
O=c1cc(-c2ccccc2)oc2cc(OCC[Te]c3ccccc3)cc(O)c12 [compound 8, 5-Hydroxy-2-phenyl-7-[2-(phenyltellanyl)ethoxy]-4H-chromen-4-one] | 128 to 129 |  |  | prec/tox | prec/tox | 3.3 | 1.1 | toxicity in the cellular infection model (in words) (SARS-CoV-2 [1]): toxic; precipitation in the medium (in words) (SARS-CoV-2 [1]): precipitated; SARS-CoV-2-related CPE reduction (in words) (SARS-CoV-2 [1]): No CPE reduction
O=c1cc(-c2ccccc2)oc2cc(OCC[Te]c3ccc(Cl)cc3)cc(O)c12 [compound 9, 7-{2-[(4-Chlorophenyl)tellanyl]ethoxy}-5-hydroxy-2-phenyl-4H-chromen-4-one] | 140.3 to 143 | - | - | prec/- | prec/tox | 2.2 | 0.77 | toxicity in the cellular infection model (in words) (SARS-CoV-2 [1]): toxic; precipitation in the medium (in words) (SARS-CoV-2 [1]): precipitated; SARS-CoV-2-related CPE reduction (in words) (SARS-CoV-2 [1]): No CPE reduction
